Counter-ions that a name gives are not always drawn.
Experiments:
[1] = target: T1, proMMP9(20-445;ΔFnII) (SEQ ID NO:6) (Homo sapiens, UniProt P14780, DEL216-390); experiment: ThermoFluor binding assay with proMMP9(20-445;ΔFnII)
T1 construct: start methionine (N); made in house; host or cells: E. coli BL21(DE3) RIL
T1 sequence (P14780 with tags, fused parts or gaps DEL216-390): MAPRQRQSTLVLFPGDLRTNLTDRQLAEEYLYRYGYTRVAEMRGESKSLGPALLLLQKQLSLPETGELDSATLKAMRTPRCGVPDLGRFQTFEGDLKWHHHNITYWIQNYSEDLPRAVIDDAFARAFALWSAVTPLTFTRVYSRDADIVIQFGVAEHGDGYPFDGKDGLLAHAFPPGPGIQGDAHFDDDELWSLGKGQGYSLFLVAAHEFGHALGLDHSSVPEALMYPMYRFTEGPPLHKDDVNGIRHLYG
Description: (§1) The ThermoFluor® (TF) assay is a 384-well plate-based binding assay that measures thermal stability of proteins (Biomol Screen 2001, 6, 429-40; Biochemistry 2005, 44, 5258-66). The experiments were carried out using instruments available from Johnson & Johnson Pharmaceutical Research & Development, LLC. TF dye used in all experiments was […] (1,8-ANS) (Invitrogen: A-47).
(§2) Compounds were arranged in a pre-dispensed plate (Greiner Bio-one: 781280), wherein compounds were serially diluted in 100% DMSO across 11 columns within a series. Columns 12 and 24 were used as DMSO reference and contained no compound. For multiple compound concentration-response experiments, the compound aliquots (50 nL) were robotically predispensed directly into black 384-well polypropylene PCR microplates (Abgene: TF-0384/k) using a Cartesian Hummingbird liquid handler (DigiLab, Holliston, Mass.). Following compound dispense, protein and dye solutions were added to achieve the final assay volume of 3 μL. The assay solutions were overlayed with 1 μL of silicone oil (Fluka, type DC 200: 85411) to prevent evaporation.
(§3) Assay plates were robotically loaded onto a thermostatically controlled PCR-type thermal block and then heated from 40 to 90° C. at a ramp-rate of 1° C./min for all experiments. Fluorescence was measured by continuous illumination with UV light (Hamamatsu LC6) supplied via fiber optics and filtered through a band-pass filter (380-400 nm; >60D cutoff). Fluorescence emission of the entire 384-well plate was detected by measuring light intensity using a CCD camera (Sensys, Roper Scientific) filtered to detect 500±25 nm, resulting in simultaneous and independent readings of all 384 wells. A single image with 20-sec exposure time was collected at each temperature, and the sum of the pixel intensity in a given area of the assay plate was recorded vs temperature and fit to standard equations to yield the Tm (J Biomol Screen 2001, 6, 429-40).
(§4) Thermodynamic parameters necessary for fitting compound binding for each proMMP were estimated by differential scanning calorimetry (DSC) and from ThermoFluor® data. The heat capacity of unfolding for each protein was estimated from the molecular weight and from ThermoFluor® dosing data.
ThermoFluor® with proMMP9(20-445; ΔFnII (SEQ ID NO:6)
The protein sample preparations included a desalting buffer exchange step via a PD-10 gravity column (GE Healthcare). The desalting buffer exchange was performed prior to diluting the protein to the final assay concentration of 2.8 μM proMMP9(20-445;ΔFnII) (SEQ ID NO:6). The concentration of proMMP9(20-445;ΔFnII) (SEQ ID NO:6) was determined spectrophotometrically based on a calculated extinction coefficient of ε280=39880 M^−1 cm^−1, a calculated molecular weight of 28.2 kDa, and calculated pI of 5.5. ThermoFluor® reference conditions were define as follows: 80 μg/mL (2.8 μM) proMMP9(20-445;ΔFnII) (SEQ ID NO:6), 50 μM 1,8-ANS, pH 7.0 Buffer (50 mM HEPES pH 7.0, 100 mM NaCl, 0.001% Tween-20, 2.5 mM MgCl2, 300 μM CaCl2). The thermodynamic parameters for proMMP9(20-445;ΔFnII) (SEQ ID NO:6) are as follows: Tm (° C.)=72 (+/−0.1), ΔUH(Tm) (cal mol^−1)=160000(+/−5000), ΔUSTm (cal mol^−1 K^−1)=434, ΔUCp (cal mol^−1 K^−1)=2400.

[2] = target: T2, proMMP9(67-444;ΔFnII) (SEQ ID NO:5) (Homo sapiens, UniProt P14780, DEL216-390); experiment: ThermoFluor binding assay with proMMP9(67-444;ΔFnII)
T2 construct: start methionine (N); made in house; host or cells: E. coli BL21(DE3) RIL
T2 sequence (P14780 with tags, fused parts or gaps DEL216-390): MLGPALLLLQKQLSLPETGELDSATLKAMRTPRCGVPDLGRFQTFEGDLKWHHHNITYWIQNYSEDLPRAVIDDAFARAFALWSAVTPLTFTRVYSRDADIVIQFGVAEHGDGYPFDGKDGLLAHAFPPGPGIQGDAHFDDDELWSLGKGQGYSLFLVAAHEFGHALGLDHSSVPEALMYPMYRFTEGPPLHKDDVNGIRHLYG
Description: as §1, §2, §3, §4
ThermoFluor® with proMMP9(67-444;ΔFnM (SEQ ID NO:5)
The protein sample preparations had to include a desalting buffer exchange step via a PD-10 gravity column (GE Healthcare). The desalting buffer exchange was performed prior to diluting the protein to the final assay concentration of 3.5 μM proMMP9(67-444;ΔFnII) (SEQ ID NO:5). The concentration of proMMP9(67-444;ΔFnII) (SEQ ID NO:5) was determined spectrophotometrically based on a calculated extinction coefficient of ε280=33900 M^−1 cm^−1, a calculated molecular weight of 22.6 kDa, and calculated pI of 5.20. ThermoFluor® reference conditions were defined as follows: 80 μg/mL (3.5 μM) proMMP9(67-444;ΔFnII) (SEQ ID NO:5), 50 μM 1,8-ANS, pH 7.0 Buffer (50 mM HEPES pH 7.0, 100 mM NaCl, 0.001% Tween-20, 2.5 mM MgCl2, 300 μM CaCl2). The thermodynamic parameters for proMMP9(67-444;ΔFnII) (SEQ ID NO:5) are as follows: Tm (° C.)=63 (+/−0.1), ΔUH(Tm)(cal mol^−1)=105000(+/−5000), ΔUS(Tm) (cal mol^−1 K^−1)=450, ΔUCp (cal mol^−1 K^−1)=2000.

[3] = target: T3, full-length proMMP9(1-707) activation by catalytic MMP3 (Homo sapiens, UniProt P14780, R574P); experiment: proMMP9/MMP3 P126 Activation Assay; format: biochemical
T3 construct: made in house; host or cells: proMMP9: HEK293 (secreted); MMP3: E. coli
T3 sequence (P14780 20-707 R574P): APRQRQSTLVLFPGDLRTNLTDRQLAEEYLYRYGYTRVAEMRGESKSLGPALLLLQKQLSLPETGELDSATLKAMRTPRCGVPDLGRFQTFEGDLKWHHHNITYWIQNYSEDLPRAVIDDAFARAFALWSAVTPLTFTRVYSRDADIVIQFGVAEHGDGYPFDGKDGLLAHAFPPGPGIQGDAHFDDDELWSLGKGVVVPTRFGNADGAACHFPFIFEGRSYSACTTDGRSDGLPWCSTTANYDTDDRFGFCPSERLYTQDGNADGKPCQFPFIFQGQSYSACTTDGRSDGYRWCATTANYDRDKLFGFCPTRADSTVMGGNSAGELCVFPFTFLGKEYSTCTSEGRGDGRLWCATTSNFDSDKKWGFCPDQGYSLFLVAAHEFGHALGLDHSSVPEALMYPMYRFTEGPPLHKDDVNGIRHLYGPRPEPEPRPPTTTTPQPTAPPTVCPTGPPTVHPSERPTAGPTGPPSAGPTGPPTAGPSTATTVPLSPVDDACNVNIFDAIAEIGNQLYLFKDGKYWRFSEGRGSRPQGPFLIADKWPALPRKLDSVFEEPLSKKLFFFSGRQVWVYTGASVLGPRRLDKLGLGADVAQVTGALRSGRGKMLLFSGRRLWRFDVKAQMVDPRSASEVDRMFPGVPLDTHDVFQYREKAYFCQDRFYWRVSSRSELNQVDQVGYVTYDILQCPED
Description: proMMP9/MMP3 P126 Activation Assay
The reaction volume was 50 μL. […] Reactivity of residual MMP3 towards P-126 substrate was minimal under these conditions.

Compound	Kd [1] [nM]	Kd [2] [nM]	IC50 [3] [nM]
Cn1cnc2c3nc(Nc4ccccc4[N+](=O)[O-])sc3ccc21 [Example 77, (6-Methyl-6H-imidazo[4′,5′:3,4]-benzo[2,1-d]thiazol-2-yl)-(2-nitro-phenyl)-amine.HCl]	3200	2600	1100
COc1ccc(Nc2nc3c(ccc4c3ncn4C)s2)c(OC)c1 [Example 78, (2,4-Dimethoxy-phenyl)-(6-methyl-6H-imidazo[4′,5′:3,4]-benzo[2,1-d]thiazol-2-yl)-amine.HCl]	10000	3400	4000
COc1ccc(N)cc1Nc1nc2c(ccc3c2ncn3C)s1 [Example 79, 4-Methoxy-N^3-(6-methyl-6H-imidazo[4′,5′:3,4]-benzo[2,1-d]thiazol-2-yl)-benzene-1,3-diamine.HCl]	3200	930	390
COc1ccc(S(=O)(=O)N2CCCCC2)cc1Nc1nc2c(ccc3c2ncn3C)s1 [Example 80, [2-Methoxy-5-(piperidine-1-sulfonyl)-phenyl]-(6-methyl-6H-imidazo[4′,5′:3,4]-benzo[2,1-d]thiazol-2-yl)-amine.HCl]	2300	960	740
COc1ccc(S(=O)(=O)N2CCOCC2)cc1Nc1nc2c(ccc3c2ncn3C)s1 [Example 81, [2-Methoxy-5-(morpholine-4-sulfonyl)-phenyl]-(6-methyl-6H-imidazo[4′,5′:3,4]benzo[2,1-d]thiazol-2-yl)-amine.HCl]	5200	1200	750
CNS(=O)(=O)c1ccc(OC)c(Nc2nc3c(ccc4c3ncn4C)s2)c1 [Example 82, 4-Methoxy-N-methyl-3-(6-methyl-6H-imidazo[4′,5′:3,4]-benzo[2,1-d]thiazol-2-ylamino)-benzenesulfonamide.HCl]	1500	1100	330
COc1ccc(F)cc1Nc1nc2c(ccc3c2cnn3C)s1 [Example 93, (5-Fluoro-2-methoxy-phenyl)-(6-methyl-6H-3-thia-1,6,7-triaza-as-indacen-2-yl)-amine.HCl]	19000	8100	180
COc1ccc(C(N)=O)cc1Nc1nc2c(ccc3cnccc32)s1 [Example 96, 4-Methoxy-3-(thiazolo[4,5-f]isoquinolin-2-ylamino)-benzamide.TFA]	730	440	730
NS(=O)(=O)c1ccc(OC(F)(F)F)c(Nc2nc3c(ccc4cnccc43)s2)c1 [Example 98, 3-(Thiazolo[4,5-f]isoquinolin-2-ylamino)-4-trifluoromethoxy-benzenesulfonamide.TFA]	7600	3000	> 20000

Second part, the molecule after the results:

Kd [1] [nM]	Kd [2] [nM]	IC50 [3] [nM]	Compound
580	150	150	COc1ccc(C#N)cc1Nc1nc2c(ccc3c2ccn3C)s1 [Example 85, 4-Methoxy-3-(6-methyl-6H-thiazolo[4,5-e]indol-2-ylamino)-benzonitrile.HCl]
> 95000	680	650	Cn1cnc2c3nc(Nc4ccc(C#N)cc4OC(F)(F)F)sc3ccc21 [Example 86, 4-(6-Methyl-6H-imidazo[4′,5′:3,4]benzo[2,1-d]thiazol-2-ylamino)-3-trifluoromethoxy-benzonitrile.HCl]
6000	1600	650	COc1ccc(NC(N)=O)cc1Nc1nc2c(ccc3c2ncn3C)s1 [Example 87, [4-Methoxy-3-(6-methyl-6H-imidazo[4′,5′:3,4]benzo[2,1-d]thiazol-2-ylamino)-phenyl]-urea.HCl]
15000	9200	510	COc1ccccc1Nc1nc2c(ccc3c2cnn3C)s1 [Example 94, (2-Methoxy-phenyl)-(6-methyl-6H-3-thia-1,6,7-triaza-as-indacen-2-yl)-amine.TFA]
4400	1000	180	COc1ccc(S(C)(=O)=O)cc1Nc1nc2c(ccc3cnccc32)s1 [Example 97, (5-Methanesulfonyl-2-methoxy-phenyl)-thiazolo[4,5-f]isoquinolin-2-yl-amine.TFA]

Reference: US20120129811A1, “TRICYCLIC INHIBITORS OF PRO-MATRIX METALLOPROTEINASE ACTIVATION” (priority 2010, published 2012)
